In general, IC50 refers to the point on the concentration scale where inhibition reaches its midpoint.

Test [1] has as its system Human hepatoma cell lines (HepG2). Nature of the test: MTT cell viability assay. Format: cell-based. The conditions noted are these: for IC50: Homo sapiens, HepG2 cells, 48 h exposure; for inhibition against liver cancer cells compared to Compound S: versus Compound S. The text has this:
The MTT (3-(4, 5-dimethylthiazol-2-yl)-2,5-diphenyl tetrazolium bromide) cell viability assay is a colorimetric assay system, which measures the reduction of a tetrazolium component (MTT) into an insoluble blue/purple colored formazan product by succinate tetrazolium reductase in mitochondria of viable cells. The absorbance of the complex is read spectrophotometrically and is directly proportional to the number of live or viable cells. Formazan formation can therefore be used to assess and determine the survival rate of cells.
Human hepatoma cell lines (HepG2) were obtained from American Type Culture Collection (Rockville, Md., USA) and cultured in Minimum Essential Medium Alpha (Invitrogen/Gibco BRL, Grand Island, N.Y., USA) at 37° C. in 5% CO2 in culture media supplemented with 10% fetal bovine serum (FBS) (Invitrogen/Gibco BRL) and 100 U/ml streptomycin and penicillin (Invitrogen/Gibco BRL).
100 μL of HepG2 cells (1×10^4 cells per well) were seeded in 96 well plates and pre-incubated. After 24 h, the cells were exposed to various concentrations of Compounds 1-11, and the known compound 4-hydroxy-2,3-dimethoxy-6-methyl-5-(3,7,11-trimethyldodeca-2,6,10-trienyl)cyclohex-2-enone (Compound S) in a volume of 200 μL for 48 h. 20 μL of MTT reagent (5 mg/mL) was added to each well and then incubated in 5% CO2 at 37° C. for 4 h. The media was replaced with 200 μL of DMSO to dissolve the MTT tetrazolium crystal. Absorbance was measured at 570 nm using a microplate reader.

Another test deals with Human HCC Mahlavu cells. Kind of test: Efficacy test on liver cancer xenograft model. In kind it is in vivo, nude mice. The method, then: […] nude mice (National Laboratory Animal Center) of four to six weeks old were used and maintained in laminar flow cabinets under pathogen-free condition. Human HCC Mahlavu cells (1×10^6 cells) carrying luciferase gene were re-suspended in 20 μL of PBS containing 50% matrigel (BD Biosciences, MA) and injected into the left lateral liver lobe of athymic nude mice (National Laboratory Animal Center) with 27-gauge needle by sterile techniques (Lu et al., 2007). For bioluminescence imaging, the animals were injected with the luciferase substrate D-luciferin at a dose of 150 mg/kg in 0.2 mL sterile isotonic saline.
Tumor growth and metastatic status was monitored using the Xenogen […] (IVIS) imaging system every two weeks. All images were obtained after intraperitoneal injection of luciferin (100 mg/kg body weight; Synchem, Elk Grove Village, Ill., United States). […] Image analysis and bioluminescence quantification were performed using Living Image software (Caliper Life Sciences, Hopkinton, Mass., United States). […] The body weight was measured twice weekly.
The tumor-bearing mice were treated with vehicle (olive oil) or Compound 1 at 120 mg/kg by oral gavage twice per day and 5 days per week for 4 weeks. The tumor volume was measured twice weekly. ***P<0.005 compared to vehicle control. […]

The structures appear in SMILES notation. In brackets after ≈: the same amount, converted by molar mass.

Regarding `COC1=C(N)[C@@H](O)[C@@H](C/C=C(\C)CC/C=C(\C)CCC=C(C)C)[C@H](C)C1=O` [Compound 1, (4S,5S,6S)-3-amino-4-hydroxy-2-methoxy-6-methyl-5-((2E,6E)-3,7,11-trimethyldodeca-2,6,10-trien-1-yl)cyclohex-2-enone], in test [1], the half-inhibitory concentration (IC50) amounted to 0.13 µg/mL (≈ 0.346 µM) and the “inhibition against liver cancer cells compared to Compound S” value (“inhibition … compared to Compound S” for short) was “much better unexpected inhibition”. In addition, in the test with Human HCC Mahlavu cells (120 mg/kg oral gavage twice per day, 5 days per week for 4 weeks, P<0.005 compared to vehicle control), the tumor size entry is “decrease of the tumor size”. Moreover, in the test with Human HCC Mahlavu cells (120 mg/kg oral gavage, at the end of week 12), the “decrease of tumor mass compared with control” value is recorded as “at least 4 folds”.

Take `COC1=C(N(C)C)[C@@H](O)[C@@H](C/C=C(\C)CC/C=C(\C)CCC=C(C)C)[C@H](C)C1=O` [Compound 4]: in test [1], the half-inhibitory concentration (IC50) amounted to 0.18 µg/mL (≈ 0.446 µM) and the “inhibition … compared to Compound S” value is “much better unexpected inhibition”.

Regarding `COC1=C(NCCCN)[C@@H](O)[C@@H](C/C=C(\C)CC/C=C(\C)CCC=C(C)C)[C@H](C)C1=O` [Compound 5], in test [1], the 50% inhibitory concentration (IC50) was 0.87 µg/mL (≈ 2.01 µM) and the “inhibition … compared to Compound S” value is “much better unexpected inhibition”.

The molecule `COC1=C(NCCO)[C@@H](O)[C@@H](C/C=C(\C)CC/C=C(\C)CCC=C(C)C)[C@H](C)C1=O` [Compound 7] had an IC50 in test [1] of 1.95 µg/mL (≈ 4.65 µM).

As to `COC1=C(NCc2cccs2)[C@@H](O)[C@@H](C/C=C(\C)CC/C=C(\C)CCC=C(C)C)[C@H](C)C1=O` [Compound 10], in test [1], half-maximal inhibition (IC50) required 0.91 µg/mL (≈ 1.93 µM) and the “inhibition … compared to Compound S” value is given as “much better unexpected inhibition”.

Take `COC1=C(NCCc2c[nH]c3ccccc23)[C@@H](O)[C@@H](C/C=C(\C)CC/C=C(\C)CCC=C(C)C)[C@H](C)C1=O` [Compound 11]: the IC50 in test [1] stood at 2.29 µg/mL (≈ 4.41 µM).

As for `COC1=C(OC)C(O)C(CC=C(C)CCC=C(C)CCC=C(C)C)C(C)C1=O` (stereo not shown) [Compound S, 4-hydroxy-2,3-dimethoxy-6-methyl-5-(3,7,11-trimethyldodeca-2,6,10-trienyl)cyclohex-2-enone, reference compound], the IC50 in test [1] was determined as 2.4 µg/mL (≈ 6.14 µM).

The values above are taken from patent publication US10858307B2, “Compositions and methods for treating liver cancer” (Golden Biotechnology Corporation, priority 2016, dated 2020).
